{"source": "patent US7939052B2", "about": "“Method of measuring the biological activity of an urotensin II receptor” (priority 2005, dated 2011)", "key": {"[1]": {"system": "urotensin II receptor", "assay": "Increase in the redness or skin temperature of the rat ear after administration of the substance", "type": "in vivo", "conditions": "data not shown", "protocol": "(§1) The examples described herein used conscious rat as the testing animal, although similar results were also observed from anesthetized rats. Other animals can also be utilized following similar procedures. All procedures involving animals were conducted in an animal facility fully accredited by the American Association for Assessment and Accreditation of Laboratory Animal Care (AAALAC) and in accordance with The Guide for the Care and Use of Laboratory Animals (NIH). Protocols were approved by the Internal Animal Care and Use Committee (IACUC). Results are expressed as mean±s.e. mean. Comparisons between groups were assessed using two-sided Student's t-test. P<0.05 was considered significant.\n(§2) Unless otherwise indicated, Rat U-II was obtained from SIGMA (U-7507, St Louis, Mo.). Urantide was purchased from Peptide International (PUT-3639-P1, Louisville, Ky.). Experiments were performed with male, Sprague-Dawley rats (Charles River, Wilmington, Mass.), weighing 250-350 g.\n(§3) Rats were acclimated at 18° C. for at least 1 hour before U-II administration. The room temperature was kept at 18° C. throughout ear surface temperature measurements. Rat U-II suspended in sterile saline (0.1 ml) at various concentrations was administered to a conscious rat via unilateral […] (i.p.) injection over a period of 5 second. In the serial dose experiment, serial doses of U-II were administered to a conscious rat via subcutaneous (s.c.) routes. The lateral inner ear surface temperature of the rat was measured using a Raytek High Performance Infra-red Thermometer (Raytek Corp., Santa Cruz, Calif.) at different time points.\n(§4) Urantide (PUT-3639-P1, Peptide International) was administered or co-administered with U-II (3 μg/kg) to a rat via subcutaneous administration. The lateral inner ear surface temperature of the rat was measured using a Raytek High Performance Infra-red Thermometer at different time points, wherein the time point of Urantide administration or Urantide and U-II co-administration was marked as 0 minute.\n(§5) The nitric oxide syntheses inhibitor, N^g nitro-L-arginine methylester (L-NAME), or prostacyclin inhibitor, indomethacin, was administered to the rat alone or in combination with U-II. L-NAME (N5751, Sigma, 100 mg/kg) suspended in saline was administered to a rat via […] (i.p.) administration 4 hour prior to injecting the rat with the U-II. Indomethacin (17378, Sigma, 30 mg/kg) suspended in carboxymethylcellulose was administered to a rat via p.o. (per os, L—by mouth or orally) 2 hours prior to injecting the rat with the U-II. […] The lateral inner ear surface temperature of the rat was measured using a Raytek High Performance Infra-red Thermometer at different time points, wherein the time point of U-II injection was marked as 0 minutes."}, "[2]": {"system": "urotensin II receptor", "assay": "Inhibition of U-II induced increase in the redness or skin temperature of the rat ear", "type": "in vivo", "protocol": "as §4\n(§6) The nitric oxide syntheses inhibitor, N^g nitro-L-arginine methylester (L-NAME), or prostacyclin inhibitor, indomethacin, was administered to the rat alone or in combination with U-II. L-NAME (N5751, Sigma, 100 mg/kg) suspended in saline was administered to a rat via […] (i.p.) administration 4 hour prior to injecting the rat with the U-II. Indomethacin (17378, Sigma, 30 mg/kg) suspended in carboxymethylcellulose was administered to a rat via p.o. (per os, L—by mouth or orally) 2 hours prior to injecting the rat with the U-II. Dexamethasone (D1756, Sigma, 8 mg/kg) suspended in saline was administered to a rat via i.p. 2 hours prior to injecting the rat with the U-II. After taking a pre-dose or baseline ear surface temperature, 0.1 ml of U-II at various concentrations formulated in sterile normal saline was injection subcutaneously to the mid-scapular region of the rat. The lateral inner ear surface temperature of the rat was measured using a Raytek High Performance Infra-red Thermometer at different time points, wherein the time point of U-II injection was marked as 0 minutes."}, "[3]": {"conditions": "rat, nicotinic acid administration; cited from earlier work"}, "[4]": {"target": "T1, urotensin II receptor (Rattus norvegicus, UniProt P49684)", "T1 construct": "from tissue; host or cells: whole animal: male Sprague-Dawley rats (Charles River), in vivo", "T1 sequence (P49684 1-386)": "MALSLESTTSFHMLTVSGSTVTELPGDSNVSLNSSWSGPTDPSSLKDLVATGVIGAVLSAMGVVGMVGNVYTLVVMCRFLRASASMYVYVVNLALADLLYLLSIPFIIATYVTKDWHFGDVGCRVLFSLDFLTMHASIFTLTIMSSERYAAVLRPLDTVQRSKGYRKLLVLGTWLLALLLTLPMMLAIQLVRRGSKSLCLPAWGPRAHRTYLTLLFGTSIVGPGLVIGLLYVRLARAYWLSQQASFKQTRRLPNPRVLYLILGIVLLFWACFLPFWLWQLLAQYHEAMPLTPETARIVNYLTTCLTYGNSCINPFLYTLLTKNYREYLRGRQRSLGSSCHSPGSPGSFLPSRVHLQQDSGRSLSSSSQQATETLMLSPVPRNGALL", "assay": "Increase in the redness or skin temperature of the rat ear after administration of the substance", "type": "in vivo", "protocol": "as §1, §2, §3, §4, §5"}, "[5]": {"target": "T1, urotensin II receptor", "assay": "Inhibition of U-II induced increase in the redness or skin temperature of the rat ear", "type": "in vivo", "conditions": "150 μg/kg co-administered s.c. with U-II 3 μg/kg", "protocol": "as §4, §6"}, "[6]": {"target": "T2, human UT receptor (Homo sapiens, UniProt Q9UKP6)", "T2 construct": "host or cells: CHO cells over-expressing the human UT receptor", "T2 sequence (Q9UKP6 1-389)": "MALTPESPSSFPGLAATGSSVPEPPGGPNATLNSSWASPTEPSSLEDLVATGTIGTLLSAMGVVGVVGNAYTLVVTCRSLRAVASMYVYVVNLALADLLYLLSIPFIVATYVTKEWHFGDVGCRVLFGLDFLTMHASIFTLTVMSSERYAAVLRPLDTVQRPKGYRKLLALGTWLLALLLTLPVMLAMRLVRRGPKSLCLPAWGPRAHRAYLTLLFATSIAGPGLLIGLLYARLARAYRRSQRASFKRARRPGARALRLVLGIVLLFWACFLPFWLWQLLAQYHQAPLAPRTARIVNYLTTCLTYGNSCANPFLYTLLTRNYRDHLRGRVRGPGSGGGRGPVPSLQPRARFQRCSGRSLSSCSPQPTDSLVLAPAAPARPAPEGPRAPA", "conditions": "CHO cells over-expressing the human UT receptor; cited from earlier work"}, "[7]": {"system": "panel of receptor/ion channels", "assay": "Binding to a panel of receptor/ion channels", "conditions": "data not shown"}, "[8]": {"target": "T3, UT receptor (Rattus norvegicus, UniProt P49684)", "T3 construct": "pure UT receptor antagonist in rat aorta vasoconstriction assays; host or cells: rat aorta tissue", "T3 sequence (P49684 1-386)": "T1 sequence (P49684 1-386)", "conditions": "competitive UT receptor antagonist, rat aorta; cited from earlier work"}}, "note": "Entries after “also recorded” stand apart in the source; their conditions may differ. Residues, ends and D or L forms follow the SMILES beside them."}
{"compound": "COC(=O)[C@@H](N)CCCNC(=N)N[N+](=O)[O-]", "note": "[L-NAME, N^g nitro-L-arginine methylester]", "values": [{"measurement": "ear flush or ear surface temperature change, substance alone", "setting": "[1]; 100 mg/kg i.p.", "result": "caused no ear flush or ear surface temperature change"}, {"measurement": "effect on U-II induced ear flush or increase of ear temperature", "setting": "[2]; 100 mg/kg i.p. 4 hour prior to U-II 3 μg/kg s.c., 100 mg/kg", "result": "blocked; also recorded: markedly inhibited"}]}
{"compound": "COc1ccc2c(c1)c(CC(=O)O)c(C)n2C(=O)c1ccc(Cl)cc1", "note": "[indomethacin]", "values": [{"measurement": "ear flush or ear surface temperature change, substance alone", "setting": "[1]; 30 mg/kg p.o.", "result": "caused no ear flush or ear surface temperature change"}, {"measurement": "effect on U-II induced ear flush or increase of ear temperature", "setting": "[2]; 30 mg/kg p.o. 2 hours prior to U-II 3 μg/kg s.c., 30 mg/kg", "result": "blocked"}, {"measurement": "effect on U-II induced ear flush or increase of ear temperature", "setting": "[2]; 30 mg/kg p.o. 2 hours prior to U-II 3 μg/kg s.c., listed as Indomethacin, 30 mg/kg", "result": "abolished"}]}
{"compound": "O=C(O)c1cccnc1", "note": "[nicotinic acid]", "values": [{"measurement": "increase of the ear temperature", "setting": "[3]", "result": "less than 1.5 °C"}]}
{"compound": "CC(C)[C@H](NC(=O)[C@@H]1CSSC(C)(C)[C@H](NC(=O)[C@@H](N)CC(=O)O)C(=O)N[C@@H](Cc2ccccc2)C(=O)N[C@H](Cc2c[nH]c3ccccc23)C(=O)N[C@@H](CCCN)C(=O)N[C@@H](Cc2ccc(O)cc2)C(=O)N1)C(=O)O", "note": "[urantide] (HELM PEPTIDE1{D.[Pen].F.[dW].[Orn].Y.C.V}$PEPTIDE1,PEPTIDE1,2:R3-7:R3$$$V2.0)", "values": [{"measurement": "ear flush or ear surface temperature change, substance alone", "setting": "[4]; 150 μg/kg s.c.", "result": "caused no ear flush or ear surface temperature changes"}, {"measurement": "effect on U-II induced ear flush or increase of ear temperature", "setting": "[5]", "result": "blocked"}, {"measurement": "activity at human UT receptor", "setting": "[6]", "result": "potent U-II agonist"}, {"measurement": "binding activity to proteins within a panel of receptor/ion channels", "setting": "[7]", "result": "minimal binding activity"}, {"measurement": "pA2", "setting": "[8]", "result": 8.3}]}
{"compound": "URP: U-II-related peptide, SEQ ID NO: 10, ACFWKYCV, intramolecular disulfide bond (PUT-4408-V, Peptide International)", "values": [{"measurement": "redness or skin temperature of the rat after administration", "setting": "[4]; URP 100 μg/kg s.c.", "result": "induced an increase in skin temperature; also recorded: induced an increase in the redness or skin temperature"}]}
